# Measured values from EP3235813A1, “AZA-TETRA-CYCLO DERIVATIVES” (CIDQO 2012, S.L., priority 2016, dated 2017).
# Experiments:
# 11β-HSD1 [1] = molecular target: T1, 11β-HSD1 (Homo sapiens, UniProt P28845); experiment: Determination of 11β-HSD1 inhibition in HEK293 cells stably transfected with the 11β-HSD1 gene (cortisone to cortisol, LC/MS); type: cell-based; set-up: expressed in transfected cells; host or cells: HEK293 cells, stably transfected; conditions: 10 µM compound, 300 nM cortisone, 2 hours, read-out: HSD1 % inh in cells (10 µM)
# Description: 11β-HSD1 activity was determined in cells that are incubated with substrate (cortisone) and product (cortisol) is determined by LC/MS. Cells are plated at 2 x 10^4 cells/well in a 96-well tissue culture microplate and incubated overnight at […] in 5% CO2 95% O2. Compounds to be tested are solubilized in 100% DMSO at 10 mM and serially diluted in water and 10% DMSO to final concentration 100 µM in 10% DMSO. 10 µl of each test dilution is dispensed into the well of a 96-well microplate (assay concentration of 10 µM). Low and high control wells contain 10 µl of 10% DMSO. A solution of DMEM is prepared containing 1% penicillin, 1% streptomycin and 300 nM cortisone. Medium is removed from cell assay plate and DMEM solution (100 µl) added to each well. Cells are incubated for 2 hours […] in 5% CO2 95% O2. Following incubation medium is removed from each well into 500 µl ethyl acetate mixed by vortex and incubated at room temperature for 5 minutes. A calibration curve of known concentrations of cortisol in assay medium is also set up and added to 500 µl ethyl acetate vortexed and incubated as above. The supernatant is removed to a 96 deep well plate and dried down under liquid nitrogen at 65°C. Each well is solubilised in 100 µl 70:30 H2O:ACN and removed to a 96 well v bottomed plate for LC/MS analysis.
# 11β-HSD1 [2] = molecular target: T1, 11β-HSD1; experiment: Determination of the 11β-HSD1 inhibition in Human Liver Microsomes (3H-cortisone to 3H-cortisol conversion, scintillation proximity assay); type: biochemical; set-up: tissue Celsis In-vitro Technologies; host or cells: mixed sex human liver microsomes; conditions: mixed sex, 1 mM NADPH, 37°C, 30 minutes, read-out: HSD1 IC50 in HLM
# Description: 11β-HSD1 activity was determined in mixed sex, Human Liver Microsomes (Celsis In-vitro Technologies) by measuring the conversion of ^3H-cortisone to ^3H-cortisol. Percentage inhibition was determined relative to a no inhibitor control. 5 µg of Human Liver microsomes was pre-incubated at 37°C for 10 minutes with inhibitor (assay concentrations of 1, 0.5, 0.1, 0.05, 0.01, 0.005, 0.001 and 0.0005 µM) and 1 mM NADPH in a final volume of 90 µL Krebs buffer. 10 µL of 200 nM ^3H-cortisone was then added followed by incubation for at 37°C for a further 30 minutes. The assay was terminated by rapid freezing on dry ice. ^3H-cortisone to ^3H-cortisol conversion was determined in 50 µL of the defrosted reaction by capturing liberated ^3H-cortisol on 100 µL 1:8000 dilution anti-cortisol (HyTest Ltd)-coated scintillation proximity assay beads (protein A-coated YSi, GE Healthcare). The percentages of inhibition at every tested concentration were analyzed using a non-linear regression curve fitting (variable slope) by using the software GraphPad Prism 5.0.
# 11β-HSD2 = molecular target: T2, 11β-HSD2 (Homo sapiens, UniProt P80365); experiment: Determination of 11β-HSD2 inhibition in HEK293 cells stably transfected with the 11β-HSD2 gene (cortisol to cortisone, LC/MS); type: cell-based; conditions: assay concentrations of 10, 1, 0.1 µM, 2 hours
# T2 construct: expressed in transfected cells; host or cells: HEK293 cells, stably transfected
# T2 sequence (P80365 1-405): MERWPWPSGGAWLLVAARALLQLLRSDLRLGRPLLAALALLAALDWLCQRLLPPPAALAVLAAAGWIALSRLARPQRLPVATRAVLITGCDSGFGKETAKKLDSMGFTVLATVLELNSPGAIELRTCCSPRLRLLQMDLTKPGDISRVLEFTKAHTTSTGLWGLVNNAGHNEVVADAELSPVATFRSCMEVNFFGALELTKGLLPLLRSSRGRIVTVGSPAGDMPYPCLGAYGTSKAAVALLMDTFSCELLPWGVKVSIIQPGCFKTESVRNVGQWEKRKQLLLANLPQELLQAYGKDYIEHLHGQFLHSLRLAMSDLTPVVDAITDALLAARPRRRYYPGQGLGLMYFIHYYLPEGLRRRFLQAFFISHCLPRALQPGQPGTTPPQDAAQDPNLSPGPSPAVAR
# Description: 11β-HSD2 activity was determined in cells that are incubated with substrate (cortisol) and product (cortisone) is determined by LC/MS. Cells are plated at 2 x 10^4 cells/well in a 96-well tissue culture microplate and incubated overnight at @37° C in 5% CO2 95% O2. Compounds to be tested are solubilized in 100% DMSO at 10 mM and serially diluted in water and 10% DMSO to final concentration in 10% DMSO. 10 µl of each test dilution is dispensed into the well of a 96-well microplate (assay concentrations of 10, 1, 0.1 µM). Low and high control wells contain 10 µl of 10% DMSO. A solution of DMEM is prepared containing 1% penicillin, 1% streptomycin and 300 nM […]. Medium is removed from cell assay plate and DMEM solution (100 µl) added to each well. Cells are incubated for 2 hours @37° C in 5% CO2 95% O2. Following incubation medium is removed from each well into 500 µl ethyl acetate mixed by vortex and incubated at room temperature for 5 minutes. A calibration curve of known concentrations of cortisone in assay medium is also set up and added to 500 µl ethyl acetate vortexed and incubated as above. The supernatant is removed to a 96 deep well plate and dried down under liquid nitrogen at 65°C. Each well is solubilised in 100 µl 70:30 H2O:AC and removed to a 96 well v bottomed plate for LC/MS analysis.
# T1 sequence (P28845 whole entry): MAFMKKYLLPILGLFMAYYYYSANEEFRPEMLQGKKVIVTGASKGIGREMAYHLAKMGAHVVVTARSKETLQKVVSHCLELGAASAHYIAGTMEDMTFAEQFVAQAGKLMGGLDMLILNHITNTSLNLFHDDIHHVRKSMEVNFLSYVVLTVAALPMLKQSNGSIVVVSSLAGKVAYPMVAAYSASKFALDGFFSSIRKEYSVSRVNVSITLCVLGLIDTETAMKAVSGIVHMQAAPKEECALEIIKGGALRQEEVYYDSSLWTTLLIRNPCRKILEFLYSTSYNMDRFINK
SMILES,inhibition at 10 µM (11β-HSD1 [1]),IC50 (11β-HSD1 [2]),IC50 (11β-HSD2)
"O=C(C1CCCCC1)N1CC2C3CCC(C4CC34)C2C1 [Example 2, cyclohexyl((4R,4aR,5aS,6S,6aS)-octahydro-4,6-ethanocyclopropa[f]iso-indol-2(1H)-yl)methanone]",100%,< 50 nM,< 100 nM
"N#Cc1ccc(N2CCN(c3ccc(C(=O)N4CC5[C@@H](C4)[C@H]4C=C[C@@H]5[C@@H]5C[C@H]45)cn3)CC2)cc1 (stereo partly drawn) [Example 15, 4-(4-(5-((4R,4aR,5aS,6S,6aS)-1,2,3,3a,4,4a,5,5a,6,6a-decahydro-4,6-ethenocyclopropa[f]isoindole-2-carbonyl)pyridin-2-yl)piperazin-1-yl)benzonitrile]",100%,50 to 500 nM,≥ 1000 nM
"O=C(C1CC=CCC1)N1CC2[C@@H](C1)[C@H]1C=C[C@@H]2[C@@H]2C[C@H]12 (stereo partly drawn) [Example 10, cyclohex-3-en-1-yl((4R,4aR,5aS,6S,6aS)-3,3a,4,4a,5,5a,6,6a-octahydro-4,6-ethenocyclopropa[f]isoindol-2(1H)-yl)methanone]",41%,< 50 nM,100 to 1000 nM
"CC(C)(C)C(=O)N1CC2[C@@H](C1)[C@H]1C=C[C@@H]2[C@@H]2C[C@H]12 (stereo partly drawn) [Example 7, 2,2-dimethyl-1-((4R,4aR,5aS,6S,6aS)-3,3a,4,4a,5,5a,6,6a-octahydro-4,6-ethenocyclopropa[f]isoindol-2(1H)-yl)propan-1-one]",85%,500 to 1000 nM,≥ 1000 nM
"Nc1c(Cl)cc(C(=O)N2CC3[C@@H](C2)[C@H]2C=C[C@@H]3[C@@H]3C[C@H]23)cc1Cl (stereo partly drawn) [Example 9, (4-amino-3,5-dichlorophenyl)((4R,4aR,5aS,6S,6aS)-3,3a,4,4a,5,5a,6,6a-octahydro-4,6-ethenocyclopropa[f]isoindol-2(1H)-yl)methanone]",77%,< 50 nM,100 to 1000 nM
"O=C(C1CCCCC1)N1CC2[C@@H](C1)[C@H]1C=C[C@@H]2[C@@H]2C[C@H]12 (stereo partly drawn) [Example 1, cyclohexyl((4R,4aR,5aS,6S,6aS)-3,3a,4,4a,5,5a,6,6a-octahydro-4,6-etheno-cyclopropa[f]isoindol-2(1H)-yl)methanone]",100%,< 50 nM,≥ 1000 nM
